In patent US20240124454A1, “TRICYCLIC COMPOUND AND USE THEREOF” (NANJING ZAIMING PHARMACEUTICAL CO., LTD., priority 2020, published 2024) one finds IC50 data, which are given here for 15 molecules.

Read-outs that look alike come from different tables or passages of the source.

The target in one experiment is MAT2A (Homo sapiens (Human), UniProt P31153). Description: MAT2A biochemical test (inorganic phosphate colorimetric, PiColorLock). The settings on record: read-out: MAT2A inhibitory Activity IC50. In a few lines: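 Compounds tested from 10 μM top concentration in 3-fold dilutions, preincubated 120 min at room temperature with MAT2A ([…] final) in Tris/KCl/MgCl2/EDTA/BSA buffer. Reaction started with […] L-methionine and 400 μM ATP, run 90 min at room temperature; phosphate read by PiColorLock after 30 min. IC50 fitted from % inhibition versus no-enzyme and DMSO controls.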

The next experiment deals with HCT116 WT cells. Description: Cell proliferation inhibition test (Cell-Titer Glo), HCT116 WT. The class given is cell-based, human. The settings on record: Homo sapiens, HCT-116, 144 h, 6 days, read-out: HCT116 WT Antiproliferative activity IC50. On the procedure:
(§1) Test Example 3. Cell Proliferation Inhibition Test of Human Colon Cancer HCT116 WT Cells and HCT116 MTAP-1-Cells
(§2) The brief introduction of the test principle: After the test MAT2A inhibitor was incubated with cancer cells for a period of time, the effect of the test compound on cell proliferation was measured using a cell proliferation count method based on the ATP content.
(§3) Reference: The experiment referred to the method disclosed in patent WO2018045071.
(§4) Material and cell: HCT116 WT cells and HCT116 MTAP^−/− cells were purchased from KYinno; fetal bovine serum, McCoy's 5a culture medium, and penicillin-streptomycin were purchased from Gibco Company (U.S.), 96-well plates were purchased from Corning Company (U.S.), and the Cell-Titer Glo reagent was purchased from Promega Company (U.S.).
(§5) Cell culture: HCT116 WT cells and HCT116 MTAP^−/− cells were cultured with a McCoy's 5a medium containing 10% fetal bovine serum+1% penicillin-streptomycin at 37° C. with 5% CO2.
(§6) Cells at logarithmic growth phase were available for the experiment.
(§7) Cell proliferation activity test: The Cell-Titer Glo reagent was used to test the compound for inhibitory activity on proliferation of both HCT116 WT and HCT116 MTAP^−/− cell strains. The cells were adjusted to a concentration of 400 cells per well, seeded on a 96-well plate, and incubated overnight at 37° C. with 5% CO2.
(§8) In the experimental group, the test compound was diluted sequentially with DMSO and a culture medium, and transferred to a cell plate at a final concentration of 10 μM, 3-fold dilution. The cells were continuously cultured at 37° C. with 5% CO2 for 6 days. The Cell-Titer Glo reagent was added and the cell activity was measured.
(§9) A negative control group and a positive control group were respectively used as Bottom and Top. The negative control group was not added with cells, only added with the culture medium in the same volume, and other operations were consistent with those of the experimental group. The positive control group was not added with the test compound, only added with DMSO in the same volume, and other operations were consistent with those of the experimental group.
(§10) The % Compound inhibition was calculated and fitted to give the IC50 of the compound.
(§11) % Compound inhibition=1-100%×(Signal−Bottom)/(Top−Bottom).
(§12) Signal referred to the signal value of the experimental group, Bottom referred to the average signal value of the negative control group, and Top referred to the average signal value of the positive control group.
(§13) HCT116 MTAP^−/− cells are cells not expressing MTAP protein obtained by site-directed knockout of wild type HCT116 (HCT116 WT) cells by gene knockout. Synthetic lethality will occur due to MAT2A inhibition and the deletion of MTAP, thereby causing tumor cell death. The activity and selectivity of the MAT2A inhibitor can be evaluated by testing the antiproliferative activity of the MAT2A inhibitor on human colon cancer HCT116 MTAP^−/− cells and human colon cancer HCT116 WT.

Experiment [1] has as its system HCT116 MTAP^−/− cells. Kind of experiment: Cell proliferation inhibition test (Cell-Titer Glo), HCT116 MTAP−/−. The conditions noted are these: Homo sapiens, HCT-116, 144 h, 6 days, read-out: HCT116 MTAP−/− Antiproliferative activity IC50. Type of experiment: cell-based, human. The method, then: as §1, §2, §3, §4, §5, §6, §7, §8, §9, §10, §11, §12, §13
Experiment [2] relates to HCT116 MTAP^−/− cells. Kind of experiment: Determination of intracellular SAM level by LC-MS/MS. The class given is cell-based. The conditions noted are these: Homo sapiens, HCT-116, 6 h, read-out: SAM production inhibitory activity IC50. The method, then: Test Example 2. Determination of Intracellular SAM Level
The brief introduction of the test principle: After the test MAT2A inhibitor was incubated with cancer cells for a period of time, the cells were lysed with a stop reagent to quench the activity of the MAT2A enzyme. The catalytic product SAM of MAT2A in the cell lysate was quantitatively determined by LC-MS/MS, and thus the activity of MAT2A in the cell was reflected.
as §3
Material and cell: HCT116 MTAP^−/− cells were purchased from KYinno; fetal bovine serum, McCoy's 5a culture medium, and penicillin-streptomycin were purchased from Gibco Company (U.S.), and 96-well plates were purchased from Corning Company (U.S.).
Cell culture: HCT116 MTAP^−/− cells were cultured with a McCoy's 5a medium containing 10% fetal bovine serum+1% penicillin-streptomycin at 37° C. with 5% CO2. Cells at logarithmic growth phase were available for the experiment.
LC-MS/MS detection: The effect of the compound on the SAM production level in HCT116 MTAP^−/− cell strains was detected by LC-MS/MS. The cells were adjusted to a concentration of 50000 cells per well, seeded on a 96-well plate, and incubated overnight at 37° C. with 5% CO2. In the experimental group, the test compound was dissolved in DMSO, diluted sequentially with DMSO and a culture medium, and transferred to a cell plate at a final concentration of 10 μM, 3-fold dilution. The cells were continuously cultured at 37° C. with 5% CO2 for 6 h. The supernatant was pipetted off. After the cells were washed once with PBS, glacial acetic acid was added to lyse the cells. After the lysate was processed, the SAM concentration was determined by LC-MS/MS analysis.
A negative control group and a positive control group were respectively used as Bottom and Top. The negative control group was added with 10 μM positive compound (compound 072 of Example 51 of patent WO2021139775A1) in the same volume, and other operations were consistent with those of the experimental group. The positive control group was not added with the test compound, only added with DMSO in the same volume, and other operations were consistent with those of the experimental group.
as §10
% Compound inhibition=1−100%×(Signal−Bottom)/(Top−Bottom)
as §12

Sequence of MAT2A (P31153 whole entry): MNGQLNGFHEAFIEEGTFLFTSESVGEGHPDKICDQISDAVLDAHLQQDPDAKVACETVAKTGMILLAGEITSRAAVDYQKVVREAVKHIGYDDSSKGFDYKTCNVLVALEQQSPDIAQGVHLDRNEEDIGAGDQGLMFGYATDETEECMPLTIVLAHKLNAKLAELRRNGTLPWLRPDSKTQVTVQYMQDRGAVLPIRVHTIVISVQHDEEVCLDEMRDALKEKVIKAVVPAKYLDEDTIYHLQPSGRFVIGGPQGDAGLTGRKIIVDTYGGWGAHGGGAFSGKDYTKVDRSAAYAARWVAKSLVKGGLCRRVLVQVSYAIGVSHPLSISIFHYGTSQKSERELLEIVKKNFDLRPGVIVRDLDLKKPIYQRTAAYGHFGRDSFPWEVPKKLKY

`Cc1ncccc1-n1c(=O)c2ncn(C)c2c2ccc(C(F)(F)F)nc21` (single isomer, unassigned) [Compound 20-P1, 1-methyl-5-(2-methylpyridin-3-yl)-7-(trifluoromethyl)-1,5-dihydro-4H-imidazo[4,5-c][1,8]naphthyridin-4-one]: the IC50 is under 100 nM at MAT2A (class symbols); 20.5 nM on MAT2A (numeric values); 237 nM in the experiment with HCT116 WT cells; 33 nM with HCT116 MTAP^−/− cells [1]; 1.6 nM in the experiment on HCT116 MTAP^−/− cells [2].

Turning to `Cn1cnc2c(=O)n(-c3cccc(C#N)c3Cl)c3nc(C(F)(F)F)ccc3c21` (single isomer, unassigned) [Compound 73-P2, 2-chloro-3-(1-methyl-4-oxo-7-(trifluoromethyl)-1,4-dihydro-5H-imidazo[4,5-c][1,8]naphthyridin-5-yl)benzonitrile], the IC50 on MAT2A (class symbols) is under 100 nM; on MAT2A (numeric values), 27.3 nM; in the experiment with HCT116 WT cells it was 2210 nM; in the experiment with HCT116 MTAP^−/− cells [1] it was 194 nM.

For `Cc1ncccc1-n1c(=O)c2ncoc2c2ccc(C(F)(F)F)cc21` (single isomer, unassigned) [Compound 82-P2, 5-(2-methylpyridin-3-yl)-7-(trifluoromethyl)oxazolo[4,5-c]quinolin-4(5H)-one], the IC50 on MAT2A (class symbols) was under 100 nM; at MAT2A (numeric values) it was 23.1 nM; in the experiment with HCT116 WT cells, 271 nM; in the experiment on HCT116 MTAP^−/− cells [1], 50.2 nM.

Regarding `Cc1ncccc1-n1c(=O)c2ncoc2c2ccc(Cl)cc21` (single isomer, unassigned) [Compound 83-P2, 7-chloro-5-(2-methylpyridin-3-yl)oxazolo[4,5-c]quinolin-4(5H)-one], the IC50 at MAT2A (class symbols) was under 100 nM; on MAT2A (numeric values), 23.1 nM; in the experiment with HCT116 WT cells, 203 nM; in the experiment with HCT116 MTAP^−/− cells [1], 54.3 nM.

In the case of `O=c1c2nc[nH]c2c2ccc(C(F)(F)F)nc2n1-c1ccccc1Cl` [Compound 1, 5-(2-chlorophenyl)-7-(trifluoromethyl)-1,5-dihydro-4H-imidazo[4,5-c][1,8]naphthyridin-4-one], the IC50 was under 100 nM at MAT2A (class symbols); 31.9 nM on MAT2A (numeric values); 816 nM in the experiment with HCT116 WT cells; 115 nM with HCT116 MTAP^−/− cells [1]; 3.8 nM in the experiment on HCT116 MTAP^−/− cells [2].

For the molecule `COc1nc2c(=O)n(-c3ccccc3Cl)c3nc(C(F)(F)F)ccc3c2[nH]1` [Compound 5, 5-(2-chlorophenyl)-2-methoxy-7-(trifluoromethyl)-1,5-dihydro-4H-imidazo[4,5-c][1,8]naphthyridin-4-one], the IC50 was under 100 nM on MAT2A (class symbols), 41.6 nM at MAT2A (numeric values), over 10000 nM with HCT116 WT cells and 274 nM with HCT116 MTAP^−/− cells [1].

Regarding `O=c1c2[nH]ncc2c2ccc(C(F)(F)F)nc2n1-c1ccccc1Cl` [Compound 6, 5-(2-chlorophenyl)-7-(trifluoromethyl)-3,5-dihydro-4H-pyrazolo[3,4-c][1,8]naphthyridin-4-one], the IC50 on MAT2A (class symbols) was under 100 nM; on MAT2A (numeric values), 50.1 nM; in the experiment on HCT116 WT cells, 1110 nM; in the experiment on HCT116 MTAP^−/− cells [1] it was 288 nM.

As to `O=c1c2nc(C(F)(F)F)[nH]c2c2ccc(C(F)(F)F)nc2n1-c1ccccc1Cl` [Compound 9, 5-(2-chlorophenyl)-2,7-bis(trifluoromethyl)-1,5-dihydro-4H-imidazo[4,5-c][1,8]naphthyridin-4-one], the IC50 on MAT2A (class symbols) was under 100 nM; on MAT2A (numeric values) it was 29.6 nM; in the experiment with HCT116 WT cells, 4180 nM; with HCT116 MTAP^−/− cells [1] it was 426 nM.

As to `O=c1c2ncoc2c2ccc(C(F)(F)F)nc2n1-c1cccc(F)c1Cl` [Compound 35, 5-(2-chloro-3-fluorophenyl)-7-(trifluoromethyl)oxazolo[4,5-c][1,8]naphthyridin-4(5H)-one], the IC50 on MAT2A (class symbols) is under 100 nM; at MAT2A (numeric values), 49 nM; in the experiment on HCT116 WT cells it was 1210 nM; in the experiment with HCT116 MTAP^−/− cells [1], 238 nM.

As to `Cc1ccc2c3c(ncn3C)c(=O)n(-c3cccc(F)c3Cl)c2n1` [Compound 38, 5-(2-chloro-3-fluorophenyl)-1,7-dimethyl-1,5-dihydro-4H-imidazo[4,5-c][1,8]naphthyridin-4-one], the IC50 at MAT2A (class symbols) was under 100 nM; at MAT2A (numeric values) it was 82 nM; with HCT116 WT cells it was 605 nM; in the experiment on HCT116 MTAP^−/− cells [1], 130 nM.

Turning to `[2H]C([2H])([2H])n1cnc2c(=O)n(-c3cccc(F)c3Cl)c3nc(C(F)(F)F)ccc3c21` [Compound 44, 5-(2-chloro-3-fluorophenyl)-1-(methyl-d3)-7-(trifluoromethyl)-1,5-dihydro-4H-imidazo[4,5-c][1,8]naphthyridin-4-one], the IC50 is under 100 nM on MAT2A (class symbols), 49.5 nM at MAT2A (numeric values), 667 nM in the experiment with HCT116 WT cells and 71.5 nM in the experiment on HCT116 MTAP^−/− cells [1].

With `Cn1cnc2c(=O)n(-c3cccnc3)c3nc(C(F)(F)F)ccc3c21` [Compound 64, 1-methyl-5-(pyridin-3-yl)-7-(trifluoromethyl)-1,5-dihydro-4H-imidazo[4,5-c][1,8]naphthyridin-4-one], the values for the IC50 on MAT2A (class symbols), in the experiment on HCT116 WT cells and in the experiment with HCT116 MTAP^−/− cells [1] were under 100 nM, 1050 nM and 398 nM, respectively.

In the case of `Cn1cnc2c(=O)n(-c3cccc(F)c3Cl)c3nc(C(F)(F)F)ncc3c21` [Compound 65, 5-(2-chloro-3-fluorophenyl)-1-methyl-7-(trifluoromethyl)-1,5-dihydro-4H-imidazo[4′,5′:4,5]pyrido[2,3-d]pyrimidin-4-one], the IC50 was under 100 nM on MAT2A (class symbols), 78.3 nM at MAT2A (numeric values), 859 nM in the experiment on HCT116 WT cells and 188 nM in the experiment on HCT116 MTAP^−/− cells [1].

Turning to `COc1ncccc1-n1c(=O)c2ncn(C)c2c2ccc(C(F)(F)F)nc21` [Compound 68, 5-(2-methoxypyridin-3-yl)-1-methyl-7-(trifluoromethyl)-1,5-dihydro-4H-imidazo[4,5-c][1,8]naphthyridin-4-one], the IC50 at MAT2A (class symbols) was under 100 nM; at MAT2A (numeric values) it was 53.5 nM; with HCT116 WT cells, over 10000 nM; in the experiment with HCT116 MTAP^−/− cells [1] it was 394 nM.

As to `[2H]C([2H])([2H])n1cnc2c(=O)n(-c3cccnc3C)c3nc(C(F)(F)F)ccc3c21` [Compound 72, 1-(methyl-d3)-5-(2-methylpyridin-3-yl)-7-(trifluoromethyl)-1,5-dihydro-4H-imidazo[4,5-c][1,8]naphthyridin-4-one], the IC50 at MAT2A (class symbols) is under 100 nM; on MAT2A (numeric values), 52.1 nM; with HCT116 WT cells, 970 nM; with HCT116 MTAP^−/− cells [1], 191 nM.
